Reference: article PMC7392643, “Antibiotic fidaxomicin is an RdRp inhibitor as a potential new therapeutic agent against Zika virus” (BMC Medicine, 2020)
“Also recorded” adds a separate entry of the source. Like-named read-outs stand apart in the source and are kept apart here.

Key:
ZIKV RdRp protein = target: T1, ZIKV RdRp protein (Zika virus, UniProt A0A024B7W1); assay: SPR (BIAcore) binding to ZIKV RdRp protein
T1 construct: RdRp (amino acids 272 to 903); His tag (8x histidine) (N); made in house; host or cells: Escherichia coli (Rosetta)
Procedure: (§1) The cDNA fragment of ZIKV (ZG-01 strain) NS5 (amino acids 1 to 903), RdRp (amino acids 272 to 903), or DENV2 NS5 (amino acids 1 to 900) containing an N-terminal His tag sequence was cloned into a pET-30a-mutant vector. For protein expression, the plasmids were transformed into Rosetta™ competent cells (TIANGEN BIOTECH Co., Ltd., Beijing, China), respectively. […] Mass spectrometry was performed by Shanghai Applied Protein Technology Co. Ltd. (Shanghai, China). The concentration of a targeted protein was measured by SDS-PAGE using BSA (Sigma, St. Louis, MO) as a standard.
(§2) Surface plasmon resonance (SPR) experiments were performed in a BIAcore T100 device (BIAcore Inc., Uppsala, Sweden) using CM5 sensor chips (General Electric Company, GE) according to the protocol provided by the manufacturer. Briefly, recombinant ZIKV NS5 protein, RdRp protein, or DENV2 NS5 protein was immobilized on a CM5 chip, respectively. Different concentrations of fidaxomicin or ribavirin were injected at a flow rate of 30 μL/min for 3 min. Subsequently, data were collected for a 3-min association followed by a 20-min dissociation. The chip was regenerated by injecting 10 μL of 15 mM NaOH for 20 s. All procedures were run in 1% DMSO PBS-P20 (GE) as a running buffer. The binding kinetics was analyzed with the software BIAevaluation version 3.1 using a 1:1 Langmuir binding model. The Kd was calculated as previously described.

[1] = target: T2, ZIKV NS5 full-length protein (Zika virus, UniProt A0A024B7W1); assay: SPR (BIAcore) binding to ZIKV NS5 full-length protein
T2 construct: NS5 (amino acids 1 to 903); His tag (8x histidine) (N); made in house; host or cells: Escherichia coli (Rosetta)
Procedure: as §1
as §2, with “All procedures were run in 1% DMSO PBS-P20 (GE) as a running buffer.” left out

ZIKV ZG-01 strain = assay: In vitro antiviral assay, RT-qPCR, ZIKV ZG-01; assay type: cell-based; settings: Zika virus
Procedure: The anti-ZIKV activity of fidaxomicin and ribavirin was evaluated in vitro by plaque assay. Various cell lines, including SNB19 (6 × 10^4/well, 10% FBS DMEM), A172 (7 × 10^4/well, 10% FBS DMEM), Vero (6 × 10^4/well 10% FBS DMEM), Huh7 (7 × 10^4/well, 10% FBS DMEM), HUVECs (7 × 10^4/well, 15% FBS M199 medium supplemented with 2 mM L-glutamine, 0.02 mg/mL endothelial cell growth supplement, and 0.05 mg/mL heparin), and A549 (6 × 10^4/well, 5% FBS DMEM), were plated in 12-well plates and allowed to attach overnight, followed by infection with ZIKV (ZG-01 strain or MR766 strain, respectively, at indicated MOI) in the presence of different concentrations of fidaxomicin, ribavirin, or vehicle control for 1 h, followed by two washes with 1 × PBS and incubated with fresh medium (without virus) consisting of corresponding concentrations of the compounds for further 48 h. The cell supernatants were collected to quantify ZIKV infection by plaque assay as previously described or by RT-qPCR. […] The anti-DENV activity of fidaxomicin was evaluated in vitro by RT-qPCR.
RNA from cell supernatants or from mouse tissues (brain and testis) was prepared with RaPure Viral RNA/DNA Kit (Magen, Guangzhou, China) according to the manufacturer’s instructions. The first-strand cDNA was synthesized using random hexamer primers with the Revert Aid Reverse Transcription Kit (Thermo Fisher Scientific, Rockford, IL, USA), and real-time PCR was carried out by using LightCycler® 480 Probes Master (2× reaction mix buffer including DNA polymerase) (no. 04887301001, Roche, Basel, Switzerland). Virus concentration was determined by interpolation onto an internal standard curve made up of a 7-point dilution series of in vitro transcribed RNA and tissue weight to quantify ZIKV RNA as copies/gram tissue. Primer sets used for real-time PCR are shown in Additional file 1: Table S1. Reverse transcription and real-time PCR were performed for at least three times.

ZIKV = assay: Oral administration test in ZIKV-infected mice; assay type: in vivo; settings: 225 mg/kg, vs vehicle
Procedure: Fig. S4. Oral administration test for the antiviral efficacy of fidaxomicin in vivo. a Schematic illustration of the animal experimental design for the oral administration test (n=10 animals per group). b Kaplan–Meier survival of ZIKV-infected mice treated with fidaxomicin at the dosage of 225mg/kg. c Body weight changes were recorded daily for ZIKV-infected mice treated with fidaxomicin at the dosage of 225mg/kg or with control delivery vehicle. d Tissue viral loads in the brains of ZIKV-infected mice were determined by RT-qPCR (P value, compared to vehicle control).

[2] = in vivo, po; cited from earlier work
in vitro = settings: African green monkey
Procedure: Cell viability was detected by the 3-(4,5-dimethyl-2-thiazolyl)-2,5-diphenyl-2H-tetrazolium bromide (MTT) assay according to a previously described method [48]. Briefly, cells were seeded in 96-well plates at a density of 1 × 10^4 cells per well and cultured at 37 °C for 24 h, followed by exposure to the serially diluted fidaxomicin or ribavirin separately for 48 h. Cell survival rate was determined by MTT reduction assay according to the manufacturer’s protocol (Invitrogen). The 50% cytotoxic concentration (CC50) was defined as the compound concentration required to inhibit the cell growth by 50% compared with the control assay. The assay was performed in triplicates in three independent experiments.

T1 sequence (A0A024B7W1 2792-3423): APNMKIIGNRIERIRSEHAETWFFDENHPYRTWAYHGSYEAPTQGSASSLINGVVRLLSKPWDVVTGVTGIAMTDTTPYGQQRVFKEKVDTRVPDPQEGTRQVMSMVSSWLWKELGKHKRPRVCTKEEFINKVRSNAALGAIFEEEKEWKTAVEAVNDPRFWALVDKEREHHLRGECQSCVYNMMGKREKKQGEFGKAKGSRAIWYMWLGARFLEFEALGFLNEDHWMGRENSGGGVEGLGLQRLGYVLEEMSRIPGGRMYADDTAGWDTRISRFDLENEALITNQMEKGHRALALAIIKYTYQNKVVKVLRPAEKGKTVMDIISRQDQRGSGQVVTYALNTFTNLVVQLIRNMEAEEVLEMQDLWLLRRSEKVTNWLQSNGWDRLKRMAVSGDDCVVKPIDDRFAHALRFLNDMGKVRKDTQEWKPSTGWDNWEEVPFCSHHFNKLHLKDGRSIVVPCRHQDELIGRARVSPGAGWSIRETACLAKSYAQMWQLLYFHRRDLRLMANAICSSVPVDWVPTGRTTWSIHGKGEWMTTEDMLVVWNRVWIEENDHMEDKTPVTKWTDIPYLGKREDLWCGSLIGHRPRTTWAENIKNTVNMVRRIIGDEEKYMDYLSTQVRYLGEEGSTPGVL
T2 sequence (A0A024B7W1 2521-3423): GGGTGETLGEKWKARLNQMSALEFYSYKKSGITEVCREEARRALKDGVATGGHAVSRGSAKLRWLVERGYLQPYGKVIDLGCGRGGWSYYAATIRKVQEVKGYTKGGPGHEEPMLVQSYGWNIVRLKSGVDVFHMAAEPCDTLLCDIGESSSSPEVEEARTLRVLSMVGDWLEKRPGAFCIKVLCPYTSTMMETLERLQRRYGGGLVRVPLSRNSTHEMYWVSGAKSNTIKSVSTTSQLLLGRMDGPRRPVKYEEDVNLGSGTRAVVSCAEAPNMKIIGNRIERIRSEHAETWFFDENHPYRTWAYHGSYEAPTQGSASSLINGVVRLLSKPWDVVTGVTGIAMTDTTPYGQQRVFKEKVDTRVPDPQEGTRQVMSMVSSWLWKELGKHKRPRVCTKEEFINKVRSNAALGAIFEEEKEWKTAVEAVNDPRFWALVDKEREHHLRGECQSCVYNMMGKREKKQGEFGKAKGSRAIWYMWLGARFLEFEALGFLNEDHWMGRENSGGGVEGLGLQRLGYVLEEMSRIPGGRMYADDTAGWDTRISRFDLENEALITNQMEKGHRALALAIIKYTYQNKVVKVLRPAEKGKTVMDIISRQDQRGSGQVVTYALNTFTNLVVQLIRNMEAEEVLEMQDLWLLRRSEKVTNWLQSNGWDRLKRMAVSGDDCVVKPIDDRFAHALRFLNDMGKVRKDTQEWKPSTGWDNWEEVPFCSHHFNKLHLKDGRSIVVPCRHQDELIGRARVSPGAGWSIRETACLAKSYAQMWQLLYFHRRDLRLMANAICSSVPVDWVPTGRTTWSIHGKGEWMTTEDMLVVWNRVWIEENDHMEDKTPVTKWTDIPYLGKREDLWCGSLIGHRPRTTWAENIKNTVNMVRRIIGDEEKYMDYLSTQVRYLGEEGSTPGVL

With `CCc1c(Cl)c(O)c(Cl)c(O)c1C(=O)O[C@H]1[C@H](O)[C@H](OC)[C@H](OC/C2=C\C=C\C[C@H](O)/C(C)=C/[C@H](CC)[C@@H](O[C@@H]3OC(C)(C)[C@@H](OC(=O)C(C)C)[C@H](O)[C@@H]3O)/C(C)=C/C(C)=C/C[C@@H]([C@@H](C)O)OC2=O)O[C@@H]1C` [Fidaxomicin] the Kd (ZIKV RdRp protein) was 23.2 µM, the “binding to ZIKV RdRp protein (SPR)” value (ZIKV RdRp protein; qualitative) was “strong, clear binding” and the Kd [1] was 18.1 µM. The EC50 (ZIKV ZG-01 strain; A 172, A172 cells, viral RNA copy number by RT-qPCR) was 8.8 ± 1.9 µM, the EC90 (ZIKV ZG-01 strain; A 172, A172 cells, viral RNA copy number by RT-qPCR, read-out: EC90) was 11.8 ± 1.4 µM and the EC90 (ZIKV ZG-01 strain; HUVEC) was 23.2 ± 3 µM. It also gave an EC50 (ZIKV ZG-01 strain; HUVEC, HUVECs, viral RNA copy number by RT-qPCR) of 14.5 ± 1.2 µM, an EC50 (ZIKV ZG-01 strain; Huh-7, Huh7 cells, viral RNA copy number by RT-qPCR) of 11.1 ± 1.6 µM and an EC90 (ZIKV ZG-01 strain; Huh-7, Huh7 cells, viral RNA copy number by RT-qPCR, read-out: EC90) of 21.6 ± 1 µM. For the same compound, the EC50 (ZIKV ZG-01 strain; SNB-19, SNB19 cells, viral RNA copy number by RT-qPCR) was 9.2 ± 2.4 µM, the EC90 (ZIKV ZG-01 strain; SNB-19, SNB19 cells, viral RNA copy number by RT-qPCR, read-out: EC90) was 17.3 ± 4.8 µM and the EC50 (ZIKV ZG-01 strain; A549 cells, viral RNA copy number by RT-qPCR) was 13 ± 3.3 µM. It also gave an EC90 (ZIKV ZG-01 strain; A549 cells, viral RNA copy number by RT-qPCR, read-out: EC90) of 17.8 ± 5.3 µM, an EC50 (ZIKV ZG-01 strain; Vero cells, viral RNA copy number by RT-qPCR) of 12.5 ± 2.2 µM and an EC90 (ZIKV ZG-01 strain; Vero cells, viral RNA copy number by RT-qPCR, read-out: EC90) of 52.1 ± 5.5 µM. For the same compound, the “outcome of ZIKV-infected mice after oral administration” value (ZIKV) was “did not improve the outcome; also recorded: only weakly antagonizes”, the “absorption through the gastrointestinal tract” value [2] was “minimally absorbed” and the plasma concentration [2] was “nanogram-per-milliliter scale”. For the same compound, the CC50 at 48 h (in vitro) was 126 ± 10.3 µM.
